The target in experiment [1] is T1, Replicative DNA helicase DnaB (Mycobacterium tuberculosis, UniProt P9WMR3).
T1 sequence (P9WMR3 whole entry): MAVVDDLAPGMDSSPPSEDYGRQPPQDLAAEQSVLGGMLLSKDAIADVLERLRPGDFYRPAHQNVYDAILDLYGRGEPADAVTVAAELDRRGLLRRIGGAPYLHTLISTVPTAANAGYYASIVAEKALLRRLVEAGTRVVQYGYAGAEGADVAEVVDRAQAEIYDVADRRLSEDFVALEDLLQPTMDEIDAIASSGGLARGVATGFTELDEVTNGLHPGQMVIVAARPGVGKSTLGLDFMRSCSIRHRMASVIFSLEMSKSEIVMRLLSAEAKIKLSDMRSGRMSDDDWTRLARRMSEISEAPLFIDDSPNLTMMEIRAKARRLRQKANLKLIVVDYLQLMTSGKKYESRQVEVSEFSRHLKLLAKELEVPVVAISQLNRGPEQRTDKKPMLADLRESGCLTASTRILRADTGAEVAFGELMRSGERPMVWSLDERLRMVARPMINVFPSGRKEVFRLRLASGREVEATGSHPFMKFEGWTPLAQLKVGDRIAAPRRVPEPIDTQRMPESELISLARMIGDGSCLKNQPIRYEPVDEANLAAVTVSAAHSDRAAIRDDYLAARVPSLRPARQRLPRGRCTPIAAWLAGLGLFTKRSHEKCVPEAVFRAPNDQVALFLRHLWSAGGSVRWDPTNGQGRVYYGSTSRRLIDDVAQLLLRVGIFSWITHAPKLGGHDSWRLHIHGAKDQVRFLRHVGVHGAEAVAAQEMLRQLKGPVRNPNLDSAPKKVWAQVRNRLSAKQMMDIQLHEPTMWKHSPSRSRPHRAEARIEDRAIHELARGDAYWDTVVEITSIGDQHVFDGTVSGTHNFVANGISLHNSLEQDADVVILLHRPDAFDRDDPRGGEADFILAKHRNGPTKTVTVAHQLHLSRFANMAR
The experiment in a line: DnaB intein splicing inhibitors, dose response, biochemical, cell-free fluorescence (AID 449749). The experiment is classed as functional.

A further experiment has as its target Albumin (Bos taurus, UniProt P02769). As to the kind of experiment: Counterscreen for inhibitors of T-cell receptor (TCR)-CD3 interaction: Fluorescence-based biochemical high throughput dose response assay to identify inhibitors of T-cell receptor (TCR)-CD3 interaction using a TAMRA-labeled BSA probe. The experiment is classed as functional.
In experiment [2] the target is T2, 1-phosphatidylinositol 4,5-bisphosphate phosphodiesterase beta-3 (Homo sapiens, UniProt Q01970).
T2 sequence (Q01970 whole entry): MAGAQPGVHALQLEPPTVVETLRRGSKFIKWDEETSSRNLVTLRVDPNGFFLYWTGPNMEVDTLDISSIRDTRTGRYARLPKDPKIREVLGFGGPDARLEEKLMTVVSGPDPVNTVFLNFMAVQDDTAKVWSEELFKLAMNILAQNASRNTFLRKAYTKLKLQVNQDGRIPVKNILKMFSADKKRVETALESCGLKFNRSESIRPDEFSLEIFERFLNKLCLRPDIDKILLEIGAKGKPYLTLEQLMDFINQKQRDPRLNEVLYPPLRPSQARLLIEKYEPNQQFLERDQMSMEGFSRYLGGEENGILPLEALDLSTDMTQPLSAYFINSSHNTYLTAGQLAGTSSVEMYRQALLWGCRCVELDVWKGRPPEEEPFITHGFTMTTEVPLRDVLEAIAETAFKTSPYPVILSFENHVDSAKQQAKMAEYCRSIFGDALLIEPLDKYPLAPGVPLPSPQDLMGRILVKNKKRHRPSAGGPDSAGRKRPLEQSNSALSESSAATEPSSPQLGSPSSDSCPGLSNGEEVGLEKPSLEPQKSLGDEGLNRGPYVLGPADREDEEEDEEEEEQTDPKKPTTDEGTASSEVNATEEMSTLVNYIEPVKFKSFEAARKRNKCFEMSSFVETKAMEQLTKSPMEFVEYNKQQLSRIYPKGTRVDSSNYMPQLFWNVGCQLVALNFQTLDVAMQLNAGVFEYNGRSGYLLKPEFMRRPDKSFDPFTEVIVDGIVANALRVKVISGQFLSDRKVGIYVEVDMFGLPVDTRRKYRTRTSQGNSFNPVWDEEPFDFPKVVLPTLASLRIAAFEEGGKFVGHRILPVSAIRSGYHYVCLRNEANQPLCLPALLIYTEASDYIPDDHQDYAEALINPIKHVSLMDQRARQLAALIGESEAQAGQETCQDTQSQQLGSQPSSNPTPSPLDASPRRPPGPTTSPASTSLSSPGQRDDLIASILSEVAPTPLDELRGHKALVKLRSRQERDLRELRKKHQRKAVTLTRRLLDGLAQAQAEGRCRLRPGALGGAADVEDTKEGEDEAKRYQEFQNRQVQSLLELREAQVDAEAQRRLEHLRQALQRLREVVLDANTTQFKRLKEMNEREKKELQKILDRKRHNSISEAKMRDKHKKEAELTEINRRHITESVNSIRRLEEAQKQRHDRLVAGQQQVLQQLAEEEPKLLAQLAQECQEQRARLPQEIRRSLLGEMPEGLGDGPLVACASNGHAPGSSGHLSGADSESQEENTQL
As to the kind of experiment: Fluorescence-based biochemical high throughput dose response assay to identify inhibitors of phospholipase C isozymes (PLC-B3).

Activity calls are given as the source filed them.

Chain of Albumin (P02769 whole entry): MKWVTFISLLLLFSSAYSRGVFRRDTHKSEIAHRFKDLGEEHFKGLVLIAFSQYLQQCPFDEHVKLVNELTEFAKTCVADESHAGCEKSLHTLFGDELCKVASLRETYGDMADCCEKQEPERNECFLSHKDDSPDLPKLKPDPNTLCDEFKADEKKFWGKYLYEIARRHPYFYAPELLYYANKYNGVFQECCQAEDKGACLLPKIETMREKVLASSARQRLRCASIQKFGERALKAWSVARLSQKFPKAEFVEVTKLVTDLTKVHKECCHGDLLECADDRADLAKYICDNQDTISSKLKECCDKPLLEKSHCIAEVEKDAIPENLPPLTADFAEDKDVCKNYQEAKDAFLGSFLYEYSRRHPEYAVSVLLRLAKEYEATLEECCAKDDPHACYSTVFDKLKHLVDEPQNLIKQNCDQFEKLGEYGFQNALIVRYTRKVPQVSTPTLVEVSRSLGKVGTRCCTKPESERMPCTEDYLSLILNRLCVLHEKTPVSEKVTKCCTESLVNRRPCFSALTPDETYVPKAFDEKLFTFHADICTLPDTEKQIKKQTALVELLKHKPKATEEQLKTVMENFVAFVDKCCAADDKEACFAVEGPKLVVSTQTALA

With `COC(=O)c1ccc(-c2ccc(C(c3c(C)[nH][nH]c3=O)c3c(C)[nH][nH]c3=O)o2)cc1`, in experiment [1], the concentration at half-maximal activity (AC50) (in general, the concentration at which the activity in the assay is half-maximal) is 0.595 µM (inconclusive).

Regarding `Oc1ccc(/C=N/NC(=S)Nc2cccnc2)c(O)c1O`, the results for the IC50 (on Albumin; in experiment [2]) were > 94.1 µM (inactive) and > 122 µM (inactive), respectively.

Source of the values: ChEMBL document CHEMBL1201862, “PubChem BioAssay data set” (2004).
